In patent US8497279B2, “Treatment for discoid lupus” (Rigel Pharmaceuticals, Inc., priority 2011, dated 2013):
Counter-ions that a name gives are not always drawn.

Key:
JAK/Stat pathway = assay: U937 IFNγ ICAM1 FACS assay; assay type: cell-based, human; details: U937 cells, IFNγ 10 ng/mL, 18-24 hours, ICAM-1 expression; read-out: Example 6 IC50
Method: U937 human monocytic cells up-regulate ICAM-1 (CD54) surface expression in response to a variety of different stimuli. Therefore, using ICAM-1 expression as readout, compound effects on different signaling pathways can be assessed in the same cell type. IFNγ up-regulates ICAM-1 through activation of the JAK/Stat pathway. In this example, the up-regulation of ICAM-1 by IFNγ was assessed.
U937 cells were grown in 10% RPMI. The cells were then plated at a concentration of 100,000 cells per 160 μL in 96 well flat bottom plates. […] Then 4 μL of test compound was transferred to 76 μL of 10% RPMI resulting in a 10× solution (100 μM test compound, 5% DMSO). For control wells, 4 μL of DMSO was diluted into 76 μL 10% RPMI.
The assay was performed in duplicate with 8 points (8 3-fold dilution concentrations from […]) and with 4 wells of DMSO only (control wells) under stimulated conditions and 4 wells of DMSO only under unstimulated conditions.
The diluted compound plate was mixed 2× using a multimek (Beckman Coulter of Brea, Calif.) and then 20 μL of the diluted compounds was transferred to the 96 well plate containing 160 μL of cells, which were then mixed again twice at low speeds. The cells and compounds were then pre-incubated for 30 minutes at 37° C. with 5% CO2.
The 10× stimulation mix was made by preparing a 100 ng/mL solution of human IFNγ in 10% RPMI. […] The cells were kept under conditions for stimulation for 18-24 hours at 37° C. with 5% CO2.
The cells were transferred to a 96 well round bottom plate for staining and then kept on ice for the duration of the staining procedure. Cells were spun down at 1000 rpm for 5 minutes at 4° C., following which the supernatant was removed. Following removal of the supernatant, 1 μL APC conjugated mouse anti-human ICAM-1 antibody was added per 100 μL FACS buffer. The cells were then incubated on ice in the dark for 30 minutes. Following incubation, 150 μL of FACS buffer was added and the cells were centrifuged at 1000 rpm for 5 minutes at 4° C., following which the supernatant was removed. […]
Both % live cells and ICAM-1 expression was analyzed. […]

JAK1 and JAK3 kinases = assay: Ramos B-cell line stimulated with IL-4, CD23 upregulation (FACS); assay type: cell-based, human; details: Ramos B cells, IL-4 50 units/mL, 20-24 hours, CD23 staining; read-out: Example 3 IC50
Method: One means of assaying for JAK inhibition is detection of the effect of compounds I and II on the upregulation of downstream gene products. In the Ramos/IL4 assay, B-cells are stimulated with the cytokine Interleukin-4 (IL-4) leading to the activation of the JAK/Stat pathway through phosphorylation of the JAK family kinases, JAK1 and JAK3, which in turn phosphorylate and activate the transcription factor Stat-6. […] Twenty to 24 hours post stimulation, cells are stained for upregulation of CD23 and analyzed using flow cytometry (FACS). […] An exemplary assay of this type is described in greater detail below. B-cells stimulated with cytokine Interleukin-4 (IL-4) activate the JAK/Stat pathway through phosphorylation of the JAK family kinases, JAK-1 and JAK-3, which in turn phosphorylate and activate the transcription factor Stat-6. […] To study the effect of inhibitors on the JAK family kinases, human Ramos B cells are stimulated with human IL-4. The Ramos B-cell line was acquired from [NT] No. CRL-1596). The cells were cultured in RPMI 1640 (Cellgro, MediaTech, Inc., Herndon, Va., Cat No. 10-040-CM) with 10% fetal bovine serum (FBS), heat inactivated (JRH Biosciences, Inc, Lenexa, Kans., Cat No. 12106-500M) according to ATCC propagation protocol. Cells were maintained at a density of 3.5×10^5. The day before the experiment, Ramos B-cells were diluted to 3.5×10^5 cells/mL to ensure that they were in a logarithmic growth phase. Cells were spun down and suspended in RPMI with 5% serum. 5×10^4 cells were used per point in a 96-well tissue culture plate. Cells were pre-incubated with compound or DMSO (Sigma-Aldrich, St. Louis, Mo., Cat No. D2650) vehicle control for 1 hour in a 37° C. incubator. Cells were then stimulated with IL-4 (Peprotech Inc., Rocky Hill, N.J., Cat No. 200-04) for a final concentration of 50 units/mL for 20-24 hours. Cells were then spun down and stained with anti-CD23-PE(BD Pharmingen, San Diego, Calif., Cat No. 555711) and analyzed by FACS. Detection was performed using a BD LSR I System Flow Cytometer, purchased from Becton Dickinson Biosciences of San Jose, Calif.

C#CCOc1ccc(Nc2nc(Nc3ccc(C)c(S(=O)(=O)NC(=O)CC)c3)ncc2F)cc1 [VI, 5-Fluoro-N2-[4-methyl-3-(N-propionylaminosulfonyl)phenyl]-N4-[4-(2-propynyloxy)phenyl]-2,4-pyrimidinediamine Arginine Salt]
IC50 (JAK/Stat pathway): 0.424 µM
IC50 (JAK1 and JAK3 kinases): 0.104 µM
